Test results: US11634447B2 (priority 2012, dated 2023)

Tested on: bacterial strain LF82 binding to the glycoprotein BSA-(Mannose)3
Experiment: Bacterial Binding Assay (BBA)
Assay type: cell-based, Escherichia coli
Details: read-out: Bacterial Binding Assay IC50, LF82/Luciferase strain binding to BSA-(Man)3 coated plates, luminescence
How it was run: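 Inhibition of LF82/luciferase E. coli adhesion is read as luminescence after washing off unbound cells. Compound and bacteria (10^7 per well) are co-incubated 40-75 min at room temperature on wells coated with 0.5-2 μg/mL BSA-(Man)3, with BSA-only wells as background; IC50 values derived.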

**Q.** With `OC[C@H]1O[C@H](C#Cc2csc3c(C#C[C@H]4O[C@H](CO)[C@@H](O)[C@H](O)[C@@H]4O)csc23)[C@@H](O)[C@@H](O)[C@@H]1O` [Compound 132, (2R,3S,4R,5S,6R)-2-(hydroxymethyl)-6-[2-[6-[2-[(2R,3S,4R,5S,6R)-3,4,5-trihydroxy-6-(hydroxymethyl)tetrahydropyran-2-yl]ethynyl]thieno[3,2-b]thiophen-3-yl]ethynyl]tetrahydropyran-3,4,5-triol] as the compound, how does the IC50 read?
**A.** 52 nM

**Q.** Which IC50 does the source give for `OC[C@H]1O[C@H](C#Cc2cc3sc(C#C[C@H]4O[C@H](CO)[C@@H](O)[C@H](O)[C@@H]4O)cc3s2)[C@@H](O)[C@@H](O)[C@@H]1O` [Compound 133] here?
**A.** 28 nM

**Q.** With `COc1cc(C#C[C@H]2O[C@H](CO)[C@@H](O)[C@H](O)[C@@H]2O)ncc1C#C[C@H]1O[C@H](CO)[C@@H](O)[C@H](O)[C@@H]1O` [Compound 134, (2R,3S,4R,5S,6R)-2-(hydroxymethyl)-6-[2-[4-methoxy-5-[2-[(2R,3S,4R,5S,6R)-3,4,5-trihydroxy-6-(hydroxymethyl)tetrahydropyran-2-yl]ethynyl]-2-pyridyl]ethynyl]tetrahydropyran-3,4,5-triol] as the compound, how does the IC50 read?
**A.** 44 nM

**Q.** For `OC[C@H]1O[C@H](C#Cc2cnc(C#C[C@H]3O[C@H](CO)[C@@H](O)[C@H](O)[C@@H]3O)cn2)[C@@H](O)[C@@H](O)[C@@H]1O` [Compound 135], which IC50 is on record?
**A.** 580 nM

**Q.** `OC[C@H]1O[C@H](C#Cc2ccc(C#C[C@H]3O[C@H](CO)[C@@H](O)[C@H](O)[C@@H]3O)c3ccccc23)[C@@H](O)[C@@H](O)[C@@H]1O` [Compound 136, (2R,3S,4R,5S,6R)-2-(hydroxymethyl)-6-[2-[4-[2-[(2R,3S,4R,5S,6R)-3,4,5-trihydroxy-6-(hydroxymethyl)tetrahydropyran-2-yl]ethynyl]-1-naphthyl]ethynyl]tetrahydropyran-3,4,5-triol] was tested. Which IC50 did it give?
**A.** 145 nM

**Q.** For `OC[C@H]1O[C@H](C#Cc2cccc3cccc(C#C[C@H]4O[C@H](CO)[C@@H](O)[C@H](O)[C@@H]4O)c23)[C@@H](O)[C@@H](O)[C@@H]1O` [Compound 137, (2R,3S,4R,5S,6R)-2-(hydroxymethyl)-6-[2-[8-[2-[(2R,3S,4R,5S,6R)-3,4,5-trihydroxy-6-(hydroxymethyl)tetrahydropyran-2-yl]ethynyl]-1-naphthyl]ethynyl]tetrahydropyran-3,4,5-triol], which IC50 is on record?
**A.** 700 nM

**Q.** How did the IC50 turn out when `OC[C@H]1O[C@H](C#Cc2ccc(C#C[C@H]3O[C@H](CO)[C@@H](O)[C@H](O)[C@@H]3O)s2)[C@@H](O)[C@@H](O)[C@@H]1O` [Compound 138] was run?
**A.** 31 nM

**Q.** With `OC[C@H]1O[C@H](c2cccc(-c3ccc(-c4cccc([C@H]5O[C@H](CO)[C@@H](O)[C@H](O)[C@@H]5O)c4)cc3)c2)[C@@H](O)[C@@H](O)[C@@H]1O` [Compound 139, (2R,3S,4R,5S,6R)-2-(hydroxymethyl)-6-[3-[4-[3-[(2R,3S,4R,5S,6R)-3,4,5-trihydroxy-6-(hydroxymethyl)tetrahydropyran-2-yl]phenyl]phenyl]phenyl]tetrahydropyran-3,4,5-triol] as the compound, how does the IC50 read?
**A.** 46 nM

**Q.** `COC(=O)Cc1cc(-c2cccc([C@H]3O[C@H](CO)[C@@H](O)[C@H](O)[C@@H]3O)c2)ccc1-c1cccc([C@H]2O[C@H](CO)[C@@H](O)[C@H](O)[C@@H]2O)c1` [Compound 140, Methyl 2-[2,5-bis[3-[(2R,3S,4R,5S,6R)-3,4,5-trihydroxy-6-(hydroxymethyl)tetrahydropyran-2-yl]phenyl]phenyl]acetate] was tested. Which IC50 did it give?
**A.** 353 nM

**Q.** With `OC[C@H]1O[C@H](c2ccc(C#C[C@H]3O[C@H](CO)[C@@H](O)[C@H](O)[C@@H]3O)cc2)[C@@H](O)[C@@H](O)[C@@H]1O` [Compound 141, (2R,3S,4R,5S,6R)-2-(hydroxymethyl)-6-[2-[4-[(2R,3S,4R,5S,6R)-3,4,5-trihydroxy-6-(hydroxymethyl)tetrahydropyran-2-yl]phenyl]ethynyl]tetrahydropyran-3,4,5-triol] as the compound, how does the IC50 read?
**A.** 340 nM

**Q.** Which IC50 does the source give for `Cc1cc(C#C[C@H]2O[C@H](CO)[C@@H](O)[C@H](O)[C@@H]2O)ccc1[C@H]1O[C@H](CO)[C@@H](O)[C@H](O)[C@@H]1O` [Compound 142] here?
**A.** 91 nM

**Q.** With `Cc1cc([C@H]2O[C@H](CO)[C@@H](O)[C@H](O)[C@@H]2O)ccc1C#C[C@H]1O[C@H](CO)[C@@H](O)[C@H](O)[C@@H]1O` [Compound 143] as the compound, how does the IC50 read?
**A.** 240 nM

**Q.** For `OC[C@H]1O[C@H](c2ccc(C#C[C@H]3O[C@H](CO)[C@@H](O)[C@H](O)[C@@H]3O)c(F)c2)[C@@H](O)[C@@H](O)[C@@H]1O` [Compound 144], which IC50 is on record?
**A.** 235 nM

**Q.** Which IC50 does the source give for `COc1cc([C@H]2O[C@H](CO)[C@@H](O)[C@H](O)[C@@H]2O)ccc1C#C[C@H]1O[C@H](CO)[C@@H](O)[C@H](O)[C@@H]1O` [Compound 145] here?
**A.** 430 nM

**Q.** With `OC[C@H]1O[C@H](c2cc3ccc(C#C[C@H]4O[C@H](CO)[C@@H](O)[C@H](O)[C@@H]4O)cc3[nH]2)[C@@H](O)[C@@H](O)[C@@H]1O` [Compound 146, (2R,3 S,4R,5S,6R)-2-(hydroxymethyl)-6-[2-[2-[(2R,3 S,4R,5S,6R)-3,4,5-trihydroxy-6-(hydroxymethyl)tetrahydropyran-2-yl]-1H-indol-6-yl]ethynyl]tetrahydropyran-3,4,5-triol] as the compound, how does the IC50 read?
**A.** 165 nM

**Q.** How did the IC50 turn out when `COc1cc([C@H]2O[C@H](CO)[C@@H](O)[C@H](O)[C@@H]2O)ccc1-c1ccc([C@H]2O[C@H](CO)[C@@H](O)[C@H](O)[C@@H]2O)c(C)c1` [Compound 147] was run?
**A.** 134 nM

**Q.** `Cc1c(C#C[C@H]2O[C@H](CO)[C@@H](O)[C@H](O)[C@@H]2O)cccc1[C@H]1O[C@H](CO)[C@@H](O)[C@H](O)[C@@H]1O` [Compound 148] was tested. Which IC50 did it give?
**A.** 130 nM

**Q.** For `Cc1cc([C@H]2O[C@H](CO)[C@@H](O)[C@H](O)[C@@H]2O)ccc1-c1ccc([C@H]2O[C@H](CO)[C@@H](O)[C@H](O)[C@@H]2O)c(C)c1` [Compound 149], which IC50 is on record?
**A.** 27 nM

**Q.** How did the IC50 turn out when `Cc1cc(-c2ccc([C@H]3O[C@H](CO)[C@@H](O)[C@H](O)[C@@H]3O)cc2F)ccc1[C@H]1O[C@H](CO)[C@@H](O)[C@H](O)[C@@H]1O` [Compound 150, (2R,2,3S,3,4R,4,5S,5,6R,6)-6,6(2-fluoro-3methyl-[1,1biphenyl]-4,4diyl)bis(2-(hydroxymethyl)tetrahydro-2H-pyran-3,4,5-triol)] was run?
**A.** 71 nM

**Q.** For `COc1cc(-c2ccc([C@H]3O[C@H](CO)[C@@H](O)[C@H](O)[C@@H]3O)cc2)ccc1[C@H]1O[C@H](CO)[C@@H](O)[C@H](O)[C@@H]1O` [Compound 151], which IC50 is on record?
**A.** 185 nM

**Q.** Which IC50 does the source give for `Cc1cc(C#Cc2ccc([C@H]3O[C@H](CO)[C@@H](O)[C@H](O)[C@@H]3O)c(C)c2)ccc1[C@H]1O[C@H](CO)[C@@H](O)[C@H](O)[C@@H]1O` [Compound 152, (2R,3S,4R,5S,6R)-2-(hydroxymethyl)-6-[2-methyl-4-[2-[3-methyl-4-[(2R,3S,4R,5S,6R)-3,4,5-trihydroxy-6-(hydroxymethyl)tetrahydropyran-2-yl]phenyl]ethynyl]phenyl]tetrahydropyran-3,4,5-triol] here?
**A.** 31 nM

**Q.** How did the IC50 turn out when `Cc1cc(-c2cnc(-c3ccc([C@H]4O[C@H](CO)[C@@H](O)[C@H](O)[C@@H]4O)c(C)c3)cn2)ccc1[C@H]1O[C@H](CO)[C@@H](O)[C@H](O)[C@@H]1O` [Compound 153, (2R,3S,4R,5S,6R)-2-(hydroxymethyl)-6-[2-methyl-4-[5-[3-methyl-4-[(2R,3S,4R,5S,6R)-3,4,5-trihydroxy-6-(hydroxymethyl)tetrahydropyran-2-yl]phenyl]pyrazin-2-yl]phenyl]tetrahydropyran-3,4,5-triol] was run?
**A.** 92 nM

**Q.** How did the IC50 turn out when `Cc1cc(-c2cccc(-c3ccc([C@H]4O[C@H](CO)[C@@H](O)[C@H](O)[C@@H]4O)c(C)c3)n2)ccc1[C@H]1O[C@H](CO)[C@@H](O)[C@H](O)[C@@H]1O` [Compound 154, (2R,3S,4R,5S,6R)-2-(hydroxymethyl)-6-[2-methyl-4-[6-[3-methyl-4-[(2R,3S,4R,5S,6R)-3,4,5-trihydroxy-6-(hydroxymethyl)tetrahydropyran-2-yl]phenyl]-2-pyridyl]phenyl]tetrahydropyran-3,4,5-triol] was run?
**A.** 44 nM

**Q.** How did the IC50 turn out when `Cc1cc(-c2ccc(-c3ccc([C@H]4O[C@H](CO)[C@@H](O)[C@H](O)[C@@H]4O)c(C)c3)c(C)n2)ccc1[C@H]1O[C@H](CO)[C@@H](O)[C@H](O)[C@@H]1O` [Compound 155, (2R,3S,4R,5S,6R)-2-(hydroxymethyl)-6-[2-methyl-4-[2-methyl-6-[3-methyl-4-[(2R,3S,4R,5S,6R)-3,4,5-trihydroxy-6-(hydroxymethyl)tetrahydropyran-2-yl]phenyl]-3-pyridyl]phenyl]tetrahydropyran-3,4,5-triol] was run?
**A.** 22 nM

**Q.** For `Cc1cc(C2CC2c2ccc([C@H]3O[C@H](CO)[C@@H](O)[C@H](O)[C@@H]3O)cc2)ccc1[C@H]1O[C@H](CO)[C@@H](O)[C@H](O)[C@@H]1O` (stereo partly shown) [Compound 156], which IC50 is on record?
**A.** 18 nM

**Q.** How did the IC50 turn out when `Cc1cc(-c2ccc(-c3ccc([C@H]4O[C@H](CO)[C@@H](O)[C@H](O)[C@@H]4O)c(C)c3)nc2)ccc1[C@H]1O[C@H](CO)[C@@H](O)[C@H](O)[C@@H]1O` [Compound 157, (2R,3S,4R,5S,6R)-2-(hydroxymethyl)-6-[2-methyl-4-[6-[3-methyl-4-[(2R,3S,4R,5S,6R)-3,4,5-trihydroxy-6-(hydroxymethyl)tetrahydropyran-2-yl]phenyl]-3-pyridyl]phenyl]tetrahydropyran-3,4,5-triol] was run?
**A.** 10 nM

**Q.** Which IC50 does the source give for `OC[C@H]1O[C@H](C#Cc2ccc(C#C[C@H]3O[C@H](CO)[C@@H](O)[C@H](O)[C@@H]3O)c(Cc3ccccc3)c2)[C@@H](O)[C@@H](O)[C@@H]1O` [Compound 158, (2R,3S,4R,5S,6R)-2-[2-[3-benzyl-4-[2-[(2R,3S,4R,5S,6R)-3,4,5-trihydroxy-6-(hydroxymethyl)tetrahydropyran-2-yl]ethynyl]phenyl]ethynyl]-6-(hydroxymethyl)tetrahydropyran-3,4,5-triol] here?
**A.** 11 nM

**Q.** For `Cc1cc(/C=C/c2ccc([C@H]3O[C@H](CO)[C@@H](O)[C@H](O)[C@@H]3O)c(C)c2)ccc1[C@H]1O[C@H](CO)[C@@H](O)[C@H](O)[C@@H]1O` [Compound 159, (2R,3S,4R,5S,6R)-2-(hydroxymethyl)-6-[2-methyl-4-[(E)-2-[3-methyl-4-[(2R,3S,4R,5S,6R)-3,4,5-trihydroxy-6-(hydroxymethyl)tetrahydropyran-2-yl]phenyl]vinyl]phenyl]tetrahydropyran-3,4,5-triol], which IC50 is on record?
**A.** 46 nM
